Data as given in PMC9516332 (Frontiers in Oncology, 2022).
Read-outs that look alike come from different tables or passages of the source.

Experiments:
[1] = target: panel of 255 wild-type kinases (Homo sapiens, UniProt O75582); experiment: Kinase panel profiling at 1 µmol/L (MSA or IMAP), percentage inhibition; assay type: biochemical; settings: MSK1; 1 µmol/L single concentration; read-out: %-inhibition, MSK1
[2] = target: panel of 255 wild-type kinases (Homo sapiens, UniProt P22607); experiment: as above; assay type: biochemical; settings: kinase FGFR3; 1 µmol/L single concentration; read-out: %-inhibition at 1 µmol/L, FGFR3
[3] = target: panel of 255 wild-type kinases (Homo sapiens, UniProt P45983); experiment: as above; assay type: biochemical; settings: kinase JNK1; 1 µmol/L single concentration; read-out: %-inhibition at 1 µmol/L, JNK1
[4] = target: panel of 255 wild-type kinases (Homo sapiens, UniProt P49760); experiment: as above; assay type: biochemical; settings: kinase CLK2; 1 µmol/L single concentration; read-out: %-inhibition at 1 µmol/L, CLK2
[5] = target: panel of 255 wild-type kinases (Homo sapiens, UniProt P50613); experiment: as above; assay type: biochemical; settings: CDK7/CycH/MAT1 kinase assay; 1 µmol/L single concentration; read-out: %-inhibition CDK7/CycH/MAT1
[6] = target: panel of 255 wild-type kinases (Homo sapiens, UniProt Q00526); experiment: as above; assay type: biochemical; settings: CDK3/CycE1 kinase assay; 1 µmol/L single concentration; read-out: %-inhibition CDK3/CycE1
[7] = target: panel of 255 wild-type kinases (Homo sapiens, UniProt Q13177); experiment: as above; assay type: biochemical; settings: PAK2; 1 µmol/L single concentration; read-out: %-inhibition, PAK2
[8] = target: panel of 255 wild-type kinases (Homo sapiens, UniProt Q96RG2); experiment: as above; assay type: biochemical; settings: PASK; 1 µmol/L single concentration; read-out: %-inhibition, PASK
[9] = target: panel of 255 wild-type kinases (Homo sapiens, UniProt Q9HBH9); experiment: as above; assay type: biochemical; settings: MNK2; 1 µmol/L single concentration; read-out: %-inhibition, MNK2
AP-1060 (ETV6-NTRK3) = experiment: Cell viability assay; settings: read-out: IC50 in cell proliferation assay
134 cancer cell lines = experiment: Cell viability assay (ATPlite, 72 hours), IC50 on cancer cell line panel

Compound `C[C@H](Nc1ncnc2nc[nH]c12)c1cc2cccc(Cl)c2c(=O)n1-c1ccccc1` [duvelisib] has an inhibition at 1 µM [1] of -8%, an inhibition at 1 µM [2] of 0.29% and an inhibition at 1 µM [3] of 0.533%. For the same compound, the inhibition at 1 µM [4] was 3.58%, the inhibition at 1 µM [5] was -5.41% and the inhibition at 1 µM [6] was -0.613%. The inhibition at 1 µM [7] was -1%, the inhibition at 1 µM [8] was -0.608% and the inhibition at 1 µM [9] was 7%. For the same compound, the IC50 (AP-1060 (ETV6-NTRK3)) was 11.3 µM, the IC50 (134 cancer cell lines; HEC-6, read-out: IC50 in cell proliferation assay, HEC-6 cell line (EGFR p.A289V)) was > 31.6 µM and the IC50 (134 cancer cell lines; Homo sapiens, 769-P, read-out: IC50 in cell proliferation assay, cell line 769-P) was 31.1 µM. For the same compound, the IC50 (134 cancer cell lines; Homo sapiens, 786-0, read-out: IC50 in cell proliferation assay, cell line 786-O) was 14.2 µM, the IC50 (134 cancer cell lines; Homo sapiens, A 172, read-out: IC50 in cell proliferation assay, cell line A-172) was > 31.6 µM and the IC50 (134 cancer cell lines; Homo sapiens, A204, read-out: IC50 in cell proliferation assay, cell line A-204) was 1.19 µM. For the same compound, the IC50 (134 cancer cell lines; Homo sapiens, A498, read-out: IC50 in cell proliferation assay, cell line A-498) was 3.39 µM, the IC50 (134 cancer cell lines; Homo sapiens, A549, read-out: IC50 in cell proliferation assay, cell line A-549) was 23.9 µM and the IC50 (134 cancer cell lines; Homo sapiens, A704, read-out: IC50 in cell proliferation assay, cell line A-704) was > 31.6 µM. It also gave an IC50 (134 cancer cell lines; Homo sapiens, A-375, read-out: IC50 in cell proliferation assay, cell line A-375 (BRAF p.V600E)) of 23.4 µM, an IC50 (134 cancer cell lines; Homo sapiens, A-427, read-out: IC50 in cell proliferation assay, cell line A-427) of 14.9 µM and an IC50 (134 cancer cell lines; Homo sapiens, ACHN, read-out: IC50 in cell proliferation assay, cell line ACHN) of 7.17 µM. For the same compound, the IC50 (134 cancer cell lines; Homo sapiens, AN3-CA, read-out: IC50 in cell proliferation assay, cell line AN3-CA (FGFR2 p.N549K)) was 4.2 µM, the IC50 (134 cancer cell lines; Homo sapiens, ASPC1, read-out: IC50 in cell proliferation assay, cell line AsPC-1) was > 31.6 µM and the IC50 (134 cancer cell lines; Homo sapiens, AU565, read-out: IC50 in cell proliferation assay, cell line AU565 (ERBB2 amplification)) was 7.67 µM. It also gave an IC50 (134 cancer cell lines; Homo sapiens, BT-20, read-out: IC50 in cell proliferation assay, cell line BT-20) of 30 µM, an IC50 (134 cancer cell lines; Homo sapiens, BT-474, read-out: IC50 in cell proliferation assay, cell line BT-474 (ERBB2 amplification)) of 9.09 µM and an IC50 (134 cancer cell lines; Homo sapiens, BT-549, read-out: IC50 in cell proliferation assay, cell line BT-549) of 0.348 µM. It also gave an IC50 (134 cancer cell lines; Homo sapiens, BXPC-3, read-out: IC50 in cell proliferation assay, cell line BxPC-3) of 16.6 µM, an IC50 (134 cancer cell lines; Homo sapiens, C-33-A, read-out: IC50 in cell proliferation assay, cell line C-33 A) of 9.87 µM and an IC50 (134 cancer cell lines; Homo sapiens, CAL-27, read-out: IC50 in cell proliferation assay, cell line CAL-27) of 8.89 µM. For the same compound, the IC50 (134 cancer cell lines; Homo sapiens, CCF-STTG1, read-out: IC50 in cell proliferation assay, cell line CCF-STTG1) was > 31.6 µM, the IC50 (134 cancer cell lines; Homo sapiens, CCRF-CEM, read-out: IC50 in cell proliferation assay, cell line CCRF-CEM) was 0.916 µM and the IC50 (134 cancer cell lines; Homo sapiens, COLO 205, read-out: IC50 in cell proliferation assay, cell line COLO 205 (BRAF p.V600E)) was 20.5 µM. The IC50 (134 cancer cell lines; Homo sapiens, COLO-829, read-out: IC50 in cell proliferation assay, cell line COLO 829 (BRAF p.V600E)) was > 31.6 µM, the IC50 (134 cancer cell lines; Homo sapiens, DLD-1, read-out: IC50 in cell proliferation assay, cell line DLD-1) was 18.5 µM and the IC50 (134 cancer cell lines; Homo sapiens, DU-4475, read-out: IC50 in cell proliferation assay, cell line DU4475 (BRAF p.V600E)) was > 31.6 µM. The IC50 (134 cancer cell lines; Homo sapiens, Daoy, read-out: IC50 in cell proliferation assay, cell line Daoy) was 12.1 µM, the IC50 (134 cancer cell lines; Homo sapiens, DoTc2-4510, read-out: IC50 in cell proliferation assay, cell line DoTc2 4510) was 8.98 µM and the IC50 (134 cancer cell lines; Homo sapiens, EOL1, read-out: IC50 in cell proliferation assay, cell line EoL-1 (FIP1L1-PDGFRA)) was 0.033 µM. It also gave an IC50 (134 cancer cell lines; Homo sapiens, FaDu, read-out: IC50 in cell proliferation assay, cell line FaDu) of 18.7 µM, an IC50 (134 cancer cell lines; Homo sapiens, G-361, read-out: IC50 in cell proliferation assay, cell line G-361 (BRAF p.V600E)) of 22.1 µM and an IC50 (134 cancer cell lines; Homo sapiens, HCC827, read-out: IC50 in cell proliferation assay, cell line HCC827 (EGFR exon19del)) of 2.18 µM. For the same compound, the IC50 (134 cancer cell lines; Homo sapiens, HCC4006, read-out: IC50 in cell proliferation assay, cell line HCC4006 (EGFR exon19del)) was 26 µM, the IC50 (134 cancer cell lines; Homo sapiens, HCT-15, read-out: IC50 in cell proliferation assay, cell line HCT 15) was > 31.6 µM and the IC50 (134 cancer cell lines; Homo sapiens, HCT-116, read-out: IC50 in cell proliferation assay, cell line HCT 116) was 27.6 µM. It also gave an IC50 (134 cancer cell lines; Homo sapiens, HEC-1, read-out: IC50 in cell proliferation assay, HEC-1 cell line) of 11.2 µM, an IC50 (134 cancer cell lines; Homo sapiens, HEC-1B, read-out: IC50 in cell proliferation assay, HEC-1-B cell line (EGFR p.A864V)) of 4.51 µM and an IC50 (134 cancer cell lines; Homo sapiens, HL-60, read-out: IC50 in cell proliferation assay, HL-60 cell line) of 4.97 µM. It also gave an IC50 (134 cancer cell lines; Homo sapiens, HT, read-out: IC50 in cell proliferation assay, HT cell line) of 4.63 µM, an IC50 (134 cancer cell lines; Homo sapiens, HT-1080, read-out: IC50 in cell proliferation assay, HT-1080 cell line) of 3.97 µM and an IC50 (134 cancer cell lines; Homo sapiens, Hs746T, read-out: IC50 in cell proliferation assay, Hs 746.T cell line (MET exon14skip + amplification)) of 4.43 µM. It also gave an IC50 (134 cancer cell lines; Homo sapiens, Hs-578T, read-out: IC50 in cell proliferation assay, Hs 578T cell line) of 2.62 µM, an IC50 (134 cancer cell lines; Homo sapiens, HuTu80, read-out: IC50 in cell proliferation assay, HuTu 80 cell line) of 15 µM and an IC50 (134 cancer cell lines; Homo sapiens, J82, read-out: IC50 in cell proliferation assay, J82 cell line) of 23.8 µM. It also gave an IC50 (134 cancer cell lines; Homo sapiens, Jurkat E6.1, read-out: IC50 in cell proliferation assay, Jurkat E6.1 cell line) of 6.94 µM, an IC50 (134 cancer cell lines; Homo sapiens, K562, read-out: IC50 in cell proliferation assay, K-562 cell line) of 12.3 µM and an IC50 (134 cancer cell lines; Homo sapiens, KATO III, read-out: IC50 in cell proliferation assay, KATO III cell line (FGFR2 amplification)) of 23.1 µM. The IC50 (134 cancer cell lines; Homo sapiens, KG-1, read-out: IC50 in cell proliferation assay, KG-1 cell line (FGFR1OP2-FGFR1)) was > 31.6 µM, the IC50 (134 cancer cell lines; Homo sapiens, KLE, read-out: IC50 in cell proliferation assay, KLE cell line) was 4.37 µM and the IC50 (134 cancer cell lines; Homo sapiens, KMS-11, read-out: IC50 in cell proliferation assay, KMS-11 cell line (FGFR3 p.Y373C)) was 11.4 µM. The IC50 (134 cancer cell lines; Homo sapiens, KU812, read-out: IC50 in cell proliferation assay, Ku812 cell line) was 12.8 µM, the IC50 (134 cancer cell lines; Homo sapiens, Kasumi 1, read-out: IC50 in cell proliferation assay, Kasumi-1 cell line (KIT p.N822K)) was 5.79 µM and the IC50 (134 cancer cell lines; Homo sapiens, LC-2-ad, read-out: IC50 in cell proliferation assay, LC-2/ad cell line (CCDC6-RET)) was 0.095 µM. For the same compound, the IC50 (134 cancer cell lines; Homo sapiens, LNCaP-Clone-FGC, read-out: IC50 in cell proliferation assay, LNCaP clone FGC cell line) was 0.119 µM, the IC50 (134 cancer cell lines; Homo sapiens, LS174T, read-out: IC50 in cell proliferation assay, LS174T cell line) was 31.2 µM and the IC50 (134 cancer cell lines; Homo sapiens, LS-411N, read-out: IC50 in cell proliferation assay, LS411N cell line (BRAF p.V600E)) was 26.3 µM. For the same compound, the IC50 (134 cancer cell lines; Homo sapiens, LoVo, read-out: IC50 in cell proliferation assay, LoVo cell line) was 9.26 µM, the IC50 (134 cancer cell lines; Homo sapiens, MCF7, read-out: IC50 in cell proliferation assay, MCF-7 cell line) was 11.8 µM and the IC50 (134 cancer cell lines; Homo sapiens, MDA-MB-231, read-out: IC50 in cell proliferation assay, MDA-MB-231 cell line) was > 31.6 µM. For the same compound, the IC50 (134 cancer cell lines; Homo sapiens, MDA-MB-453, read-out: IC50 in cell proliferation assay, MDA-MB-453 cell line) was > 31.6 µM and the IC50 (134 cancer cell lines; Homo sapiens, MDA-MB-468, read-out: IC50 in cell proliferation assay, MDA-MB-468 cell line) was 1.3 µM.
